How the values were obtained:
carboxyesterase = assay: substrate test with carboxyesterase; format: biochemical
Description: The serum samples were diluted by a factor of 10 prior to the assay. The substrate solution and the diluted sera were then preincubated at 37° C. in a water bath. Aliquots (0.75 ml) of the substrate solution were then pipetted into small plastic tubes (2 ml capacity), and 0.05 ml samples of the sera were added to each of the substrate aliquots and shaken vigorously to ensure adequate mixing. A blank was run by substituting water (0.05 ml) for the serum. The reaction was stopped after 10 min by the addition of the stopping buffer (0.25 ml) [prepared by dissolving DABCO (22.4 g) in water (200 ml) and adjusting the pH to 10 by the addition of a little conc. hydrochloric acid. The resulting mixture was then made up to 1000 ml with acetone]. […] [formula] where t=time of incubation in hours
Otherwise it was carried out in exactly the same ways as above

stability on storage = format: physicochemical; conditions: potassium salt compared with free acid
[1] = solubility in water or aqueous buffer
lipases = assay: substrate test with lipases; format: biochemical
esterases = assay: substrate test with esterases; format: biochemical

## CCCC(=O)Oc1c(OC)cc(C=C2SC(=S)N(CC(=O)O)C2=O)cc1OC [11d, n=2, 5-(Butanoyloxy-3,5-dimethoxyphenylmethylene)-2-thioxothiazolidin-4-one-3-ethanoic acid]
carboxyesterase
  quality as substrate for / cleavage by carboxyesterase: readily cleaved
Stability on storage
  stability on standing: slowly decomposed on standing
[1]; alkaline buffers (pH 8 etc.)
  solubility in alkaline buffers: readily dissolved
[1]; water or aqueous buffer, aqueous buffer
  solubility: > 2000 µM

## CCCCCCCCCC(=O)Oc1c(OC)cc(C=C2SC(=S)N(CC(=O)O)C2=O)cc1OC [11d, n=8]
lipases
  activity as substrate for lipase: good substrate

## COc1cc(/C=C/c2cc[n+](C)c3ccccc23)cc(OC)c1OC(=O)c1ccccc1 [24e, 4-[2(4-Benzoyloxy-3,5-dimethoxyphenyl)-vinyl]-1-methylquinolinium iodide]
esterases
  activity as substrate for esterases: substrate for esterases
[1]; water
  solubility: < 250 µM

## CCCCCCCCC(=O)Oc1c(OC)cc(C=C2SC(=S)N(c3ccc(C(=O)O)cc3)C2=O)cc1OC [Nonanoate]
lipases
  activity as substrate for lipase: exhibited enzymatic activity

Source: patent publication US5221606A, “Reagent and kit for enzyme assay comprising a substrate consonant with given enzyme to be assayed” (King's College London, priority 1987, dated 1993)
